# Article PMC6385020 (Molecules, 2019)
# Assays:
# [1] = system: 22AG human telomeric sequence G4; assay: TO-PRO-3 G4-FID assay; type: binding; details: TO-PRO-3 2 eq, K+100 buffer
# Procedure: (§1) For the G4-FID assay, the oligonucleotides were dissolved in K^+100 buffer (10 mM lithium cacodylate buffer pH 7.3, 100 mM KCl, 1% DMSO). Oligonucleotide concentrations were determined on the basis of their absorbance at 260 nm. For the fluorimetric titration, the oligonucleotides were dissolved in K^+100 buffer without DMSO. For the FRET-melting assay, the oligonucleotides were dissolved in K^+1 buffer (10 mM lithium cacodylate buffer pH 7.3, 1 mM KCl, 99 mM LiCl) except for F-21-T. F-21-T was dissolved in K^+10 buffer (10 mM lithium cacodylate buffer pH 7.3, 10 mM KCl, 90 mM LiCl).
# (§2) Prior to use, all oligonucleotides were pretreated by heating at 95 °C for 5 min, then rapidly cooled to 4 °C to favor the intramolecular folding by kinetic trapping. Duplex-DNA ds26 was prepared by heating the self-complementary strand at 90 °C for 5 min in K^+1 buffer followed by a slow cooling over 6 h.
# (§3) Each G4-FID assay was performed in a 96-well Non-Binding Surface black with black bottom polystyrene microplates (Corning). Every ligand was tested on a line of the microplate, in duplicate. The microplate was filled with (a) K^+100 solution (qs for 200 μL), (b) 10 μL of a solution of pre-folded oligonucleotides (5 μM) and fluorescent probe (TO/TO-PRO-3 (10 μM—2 eq) or PhenDV (7,5 µM—1.5 eq)), and (c) an extemporaneously prepared 5 μM ligand solution in K^+100 buffer (0 to 100 μL) along the line of the microplate, i.e., from column A to column H: 0, 0.125, 0.25, 0.375, 0.5, 0.625, 0.75, 1.0, 1.25, 1.5, 2.0, and 2.5 μM. After 5 min of orbital shaking at 500 rpm, fluorescence is measured using the following experimental parameters: positioning delay of 0.5 s, 20 flashes per well, emission/excitation filters for TO at 485/520, TO-PRO-3 at 620/670, and PhenDV at 355/520 gain adjusted at 80% of the fluorescence from the most fluorescent well (i.e., a well from column A for TO and a well from column H).
# The percentage of TO displacement is calculated from the fluorescence intensity (F), using (1) % TO displacement=1−F/F0 where F0 is the fluorescence from the fluorescent probe bound to DNA without added ligand.
# (§4) The PhenDV displacement is calculated from the fluorescence intensity F; F(ligand+probe), which refers to the fluorescence of the probe in presence of the ligand (without G4); and F0, which is the fluorescence without added ligand. The term F(ligand+probe) is necessary as the ligand can quench the fluorescence of the probe. The percentage of displacement is then plotted as a function of the concentration of the added ligand. The DNA affinity was evaluated by the concentration of ligand required to decrease the fluorescence of the probe by 50%, was noted DC50, and was determined after non-linear fitting of the displacement curve.
# [2] = system: 21CTA human telomeric sequence variant G4; type: binding; details: PhenDV 1.5 eq, K+100 buffer
# Procedure: as §1, §2, §3
# In the case of PhenDV, the fluorescence of the unbound probe is not negligible. The percentage of displacement becomes (2) % PhenDV Displacement=F−F0/Fligand+probe−F0
# as §4
# duplex ds26 DNA = assay: TO-PRO-3 G4-FID assay; type: binding; details: ds26, K+100 buffer
# Procedure: as §1, with “LiCl). […]” for “LiCl).”
# Each G4-FID assay was performed in a 96-well Non-Binding Surface black with black bottom polystyrene microplates (Corning). […] After 5 min of orbital shaking at 500 rpm, fluorescence is measured using the following experimental parameters: positioning delay of 0.5 s, 20 flashes per well, emission/excitation filters for TO at 485/520, TO-PRO-3 at 620/670, and PhenDV at 355/520 gain adjusted at 80% of the fluorescence from the most fluorescent well (i.e., a well from column A for TO and a well from column H).
# The percentage of TO displacement is calculated from the fluorescence intensity (F), using (1) % TO displacement=1−F/F0 where F0 is the fluorescence from the fluorescent probe bound to DNA without added ligand. […]
# [3] = system: ds26 (DNA, duplex) CAATCGGATCGAATTCGATCCGATTG; assay: G4-FID, thiazole orange displacement; details: 100 mM KCl; 10 mM lithium cacodylate pH 7.3, 1% DMSO; thiazole orange displaced; 1 µM compound, 0.25 µM DNA
# 22AG human telomeric G4 = assay: Platination of 22AG followed by denaturing gel electrophoresis; type: biochemical; details: 0.2 µM 22AG, 1 µM complex, 25 to 95 °C gradient, K+10 buffer
# Text: Since all these complexes (except for Pt(PA)-tpy) are susceptible to induce platination reactions, they can be exacerbated by a high temperature and by an increased number of nucleophilic sites which are exposed during unfolding (increased N7 G free sites); we wonder if such a reaction could occur during FRET-melting experiments and to what extent. Therefore, we followed the extent of platination reactions of c-myc and 22AG (same sequences as those used for FRET-melting but without fluorophore labeling) as a function of the melting temperature using ^32P-labelled oligonucleotides and denaturing gel electrophoresis (Figure 2).
# The oligonucleotides were 5’-end-labelled using a polynucleotide kinase and (γ^32P)-ATP (Perkin Helmer). The reaction products were purified by electrophoresis on 20% denaturing gel. Sample platinations were prepared by folding a mixture of 5’-end-radiolabeled DNA and 10 µM or 100 µM of non-radiolabeled material in 100 mM KClO4 or 100 mM KCl solution except for the platination reaction in the denaturing temperature conditions. The folding was achieved by heating the samples at 90 °C for 5 min, followed by slow cooling to room temperature over the course of 2 h to induce the formation of the quadruplex structure. It was then incubated with platinum complexes, and platinated products were separated by electrophoresis on 15% denaturing gel. […]
# [4] = system: F-CEB25-WT-T (DNA, G4) AGGGTGGGTGTAAGTGTGGGTGGGT; assay: FRET-melting; details: 1 mM KCl, 99 mM LiCl; 10 mM lithium cacodylate pH 7.3; 1 µM compound, 0.2 µM DNA
# [5] = system: c-myc (myc22) (DNA, G4) TGAGGGTGGGTAGGGTGGGTAA; assay: G4-FID, TO-PRO-3 displacement; details: 100 mM KCl; 10 mM lithium cacodylate pH 7.3, 1% DMSO; TO-PRO-3 displaced; 1 µM compound, 0.25 µM DNA
# [6] = system: 21CTA (DNA, G4) AGGGCTAGGGCTAGGGCTAGGG; assay: G4-FID, TO-PRO-3 displacement; details: 100 mM KCl; 10 mM lithium cacodylate pH 7.3, 1% DMSO; TO-PRO-3 displaced; 1 µM compound, 0.25 µM DNA
structure (smiles),measurement,setting,value
"[Cl-].[Cl][Pt+].c1ccc(-c2cc(-c3ccc(OCCN4CCCC4)cc3)nc(-c3ccccn3)n2)nc1 [Pt-cpym, Chloro-(2,4-di(pyridin-2-yl)-6-(4-(2-(pyrrolidin-1-yl)ethoxy)phenyl)pyrimidine)-platinum(II) Chloride]",% of TOPRO3 displacement at 1 µM of ligand,[1],25%
same,% of PhenDV displacement at 1 µM of ligand,[2],72%
CN(C)CCCNCc1ccc(-c2cc(-c3ccccn3)nc(-c3ccccn3)c2)cc1.[Cl-].[Cl][Pt+] [Pt-ctpy],% of TOPRO3 displacement at 1 µM of ligand,duplex ds26 DNA,24%
same,% of TOPRO3 displacement at 1 µM of ligand,[1],78%
same,% TO displacement,[3],< 20%
same,% of PhenDV displacement at 1 µM of ligand,[2],100%
[Cl-].[Cl][Pt+].c1ccc(-c2cccc(-c3ccccn3)n2)nc1 [Pt-tpy],% of TOPRO3 displacement at 1 µM of ligand,[1],12%
same,% of PhenDV displacement at 1 µM of ligand,[2],35%
same,platination of 22AG during melting temperature experiments,22AG human telomeric G4,clearly platinate
Cc1ccc(-c2cc(-c3ccccn3)nc(-c3ccccn3)c2)cc1.[Cl-].[Cl][Pt+] [Pt-ttpy],% of TOPRO3 displacement at 1 µM of ligand,duplex ds26 DNA,13%
same,% of TOPRO3 displacement at 1 µM of ligand,[1],65%
same,% TO displacement,[3],< 20%
same,ΔTm,[4],> 10 °C
same,% of PhenDV displacement at 1 µM of ligand,[2],90%
same,platination of 22AG during melting temperature experiments,22AG human telomeric G4,clearly platinate
"CN(C)c1ccc(/C=C/c2cc(-c3ccccn3)nc(-c3ccccn3)n2)cc1.[Cl-].[Cl][Pt+] [Pt-vpym, Chloro-(E)-4-(2-(2,6-di(pyridin-2-yl)pyrimidin-4-yl)vinyl)-N,N-dimethylaniline-platinum(II) Chloride]",% of TOPRO3 displacement at 1 µM of ligand,[1],28%
same,% TO-PRO-3 displacement,[5],~ 30%
same,% TO-PRO-3 displacement,[6],~ 30%
